From patent publication EP0541497A1, “Prolineamide derivatives as enhancers of learning processes and memory and pharmaceutical compositions containing same” (Sigma-Tau Industrie Farmaceutiche Riunite S.p.A., priority 1991, dated 1993)

What was measured:
ECS-induced amnesia = test: Passive avoidance test, amnesia induced by electroconvulsive shock (ECS); type: in vivo, Male CDI mice; conditions: percentage of amnesia reversal, given 30 minutes before training, retention 24 hours later
Procedure: In order to assess the antiamnesic activity the passive avoidance test in mince was used.
Male CDI mice weighing 25-26 g (charles River, Germany) fed on a normal diet, were used.
The compounds were administered i.p.; doses equimolar to 9.0 and 0.9 mg piracetam kg ⁻¹ were used.
The water-soluble compounds were dissolved in saline; the insoluble ones were dissolved in dimethylsulfoxide and then diluted in 2% Tween 80, ratio 1:4.
The apparatus for passive avoidance conditioning was a black plastic chamber (42 x 42 cm, height 40 cm), provided with a floor constructed of metal that could be electrified. From the front wall extended a white runway, 30 cm long and 10 cm wide provided with side walls 12 cm high, which led into the box through a guillotine door.
The animals, 30 minutes following treatment, were placed on the runways. After one minute of adaptation, the door was raised and the time employed by the animal to enter the darkened with all four feet, was recorded.
Upon entry, the guillotine door was lowered and 3 seconds thereafter the rods were electrified, 0.24 mA for 2 seconds. The mouse was then removed from the chamber and immediately administered and electroshock delivered through spring clips attached to the ears (square wave, intensity 20 mA, amplitude 0.6 msec, duration 0.5 s, frequency 50 Hz). Immediately thereafter the animal was placed in the housing cage. Retention was assessed 24 hours later by placing the animal on the runways and again evaluating the latency in entering the chamber, using an end-point of 300 s (crf. Brammer, loc. cit.).
In each experiment, two groups of animals in addition to the treated ones were used, that were defined as follows: • (1) ceiling control animals (treated with placebo and not subjected to ECS amnesia treatment) to ensure that these animals not treated with the amnesia agent remembered the task; • (2) base-line control animals (treated with placebo and subjected to ECS amnesia treatment) to ensure that ECS produced amnesia in the animals not treated with the compounds of the present invention.
The sum ΣAij encompasses all the possible pairs obtained by combining each term Xi with each term Xj.

[1] = relative to oxiracetan; cited from earlier work
[2] = Behavioural profile (Irwin test); type: in vivo, male CDI Mice; conditions: mouse, in vivo; oral, 90 mg/kg (equimolar to piracetam), monitored for 6 hours; read-out: death rate
Procedure: (§1) The behavioural profile was assessed in male CDI Mice (Charles River, Italy) weighing 22-24 g, using the Irwin test (IRWIN S., Drug screening and evaluation procedures; 136, 123-128, 1962). The animals had been caged under normal conditions and kept fasting for the last 18 hours.
(§2) Following administration of the compounds, the behaviour of the animals was monitored for 6 hours. The compounds were suspended in 10% arabic gum and orally administered at doses equimolar to 90, 23, 5.4 and 1.4 mg piracetam/10mL/kg of body weight.
(§3) The animals of the control groups were administered 10% arabic gum (10mL/kg, orally).

male CDI Mice = test: Behavioural profile (Irwin test); type: in vivo; conditions: oral, the other doses (equimolar to 23, 5.4 and 1.4 mg piracetam/10mL/kg), monitored for 6 hours
Procedure: as §1, §2, §3

[3] = 0.9 mg/kg (i.p., dose equimolar to 0.9 mg piracetam kg-1)
[4] = 9mg/kg (i.p., dose equimolar to 9.0 mg piracetam kg-1)

| Structure (SMILES) | %AR (ECS-induced amnesia; [3]) [%] | %AR (ECS-induced amnesia; [4]) [%] | doses for nootropic activity, times as high as those of oxiracetan [1] | mortality at 6 h [2] [%] | toxicity (male CDI Mice) |
| --- | --- | --- | --- | --- | --- |
| O=C(NCCO)[C@@H]1CCCN1C(=O)OCc1ccccc1 [ST 704, (S)-N-[N-(BENZYLOXYCARBONYL)-PROLYL]-ETHANOLAMINE] | 0 | 46 |  |  |  |
| O=C([C@@H]1CCCN1C(=O)OCc1ccccc1)N1CCN(c2cccc(Cl)c2)CC1 [ST 792, (S)-1-[N-(BENZYLOXYCARBONYL)-PROLYL]-4-(3-CHLOROPHENYL)-PIPERAZINE] | 26 | 0 |  |  |  |
| O=C1CC[C@@H](C(=O)O)N1 [L-pyroglutamic acid] |  |  | 5-10 times |  |  |
| CC(C)N(CCNC(=O)[C@@H]1CCCN1C(=O)OCc1ccccc1)C(C)C [ST 691, (S)-1-[N-(BENZYLOXYCARBONYL)-PROLYL]-2,2(DIISOPROPYL)-ETHYLENDIAMINE] | 52 | 0 |  | 100 | non toxic |
| NC(=O)CN1CCCC1=O [Piracetam, reference compound] | 0 | 0 |  |  |  |
| CC(C)N(CCNC(=O)[C@@H]1CCCN1C=O)C(C)C [ST 849, (S)-1-[N-(FORMYL)-PROLYL]-2.2(DIISOPROPYL)-ETHYLENDIAMINE] | 3 | 59 |  |  |  |
